# Laboratory results reported in ChEMBL document CHEMBL4014295, “Discovery and structure-activity relationship studies of N-substituted indole derivatives as novel Mcl-1 inhibitors” (Bioorg Med Chem Lett, 2017).
# What was measured:
# [1] = target: Induced myeloid leukemia cell differentiation protein Mcl-1 (Homo sapiens, UniProt Q07820); assay: Inhibition of 6-carboxyfluorescein succinimidyl ester fluorescence tagged-Bid BH3 peptide (79 to 99 residues) binding to Mcl-1 (unknown origin) after 30 mins by fluorescence polarization assay
# Induced myeloid leukemia cell differentiation protein Mcl-1, sequence (Q07820 whole entry, the tested form may be a part): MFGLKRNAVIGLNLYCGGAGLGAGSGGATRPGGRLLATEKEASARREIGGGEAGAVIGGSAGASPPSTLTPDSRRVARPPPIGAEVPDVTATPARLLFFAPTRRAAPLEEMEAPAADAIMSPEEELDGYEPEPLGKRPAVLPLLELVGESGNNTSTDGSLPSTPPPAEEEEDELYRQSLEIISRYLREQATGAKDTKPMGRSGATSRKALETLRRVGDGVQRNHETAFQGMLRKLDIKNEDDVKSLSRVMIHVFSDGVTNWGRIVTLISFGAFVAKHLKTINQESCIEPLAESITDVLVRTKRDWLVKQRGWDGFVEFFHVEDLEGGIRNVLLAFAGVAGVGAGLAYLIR
# [2] = target: Apoptosis regulator Bcl-2 (Homo sapiens, UniProt P10415); assay: Inhibition of 6-carboxyfluorescein succinimidyl ester fluorescence tagged-Bid BH3 peptide (79 to 99 residues) binding to Bcl-2 (unknown origin) after 30 mins by fluorescence polarization assay
# Apoptosis regulator Bcl-2, sequence (P10415 whole entry, the tested form may be a part): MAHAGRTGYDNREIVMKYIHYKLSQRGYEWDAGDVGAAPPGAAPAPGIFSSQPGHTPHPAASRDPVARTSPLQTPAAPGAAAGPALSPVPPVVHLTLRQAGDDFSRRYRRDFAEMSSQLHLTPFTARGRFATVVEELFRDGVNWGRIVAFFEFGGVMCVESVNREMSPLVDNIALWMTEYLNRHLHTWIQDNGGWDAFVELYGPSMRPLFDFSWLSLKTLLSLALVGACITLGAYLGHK
Compound,Ki [1],Ki [2]
O=C(O)COc1ccc2ccn(CCCOc3ccc(Oc4ccccc4)cc3)c2c1,3240 nM,
Cc1cccc(OCCCn2ccc3ccc(OCC(=O)O)cc32)c1,> 30000 nM,
Cc1cc(OCCCn2ccc3ccc(OCCCC(=O)O)cc32)cc(C)c1Cl,2680 nM,
CCOC(=O)c1ccc2ccn(CCCOc3cc(C)c(Cl)c(C)c3)c2c1,> 30000 nM,
Cc1cc(OCCCn2ccc3ccc(OCCO)cc32)cc(C)c1Cl,2100 nM,
CC(C)(C)Oc1ccc(OCCCn2c(C(N)=O)cc3ccc(OCC(=O)O)cc32)cc1,5380 nM,
COc1ccc(OCCCn2ccc3ccc(OCC(=O)O)cc32)cc1,4420 nM,
CC(C)(C)c1ccc(OCCCn2ccc3cc(OCc4ccccc4C(=O)O)ccc32)cc1,310 nM,170 nM
Cc1cc(C)cc(OCCCn2ccc3ccc(OCC(=O)O)cc32)c1,12500 nM,
CC(C)(C)Oc1ccc(OCCCn2ccc3ccc(OCC(=O)O)cc32)cc1,1870 nM,
COc1ccc(OCCCn2c(C(N)=O)cc3ccc(OCC(=O)O)cc32)cc1,7780 nM,
Cc1cc(OCCCn2ccc3ccc(OCC(=O)O)cc32)ccc1Cl,9890 nM,
NC(=O)c1cc2ccc(OCC(=O)O)cc2n1CCCOc1cccc2ccccc12,10300 nM,
CC(C)(C)c1ccc(OCCCn2c(C(=O)N3CCCCC3)cc3ccc(OCc4ccccc4C(=O)O)cc32)cc1,360 nM,150 nM
Cc1cc(OCCCn2ccc3ccccc32)cc(C)c1Cl,> 30000 nM,
Cc1cc(OCCCn2ccc3c(OCc4cccc(C(=O)O)c4)cccc32)cc(C)c1Cl,150 nM,140 nM
NC(=O)c1cc2ccc(OCC(=O)O)cc2n1CCCOc1ccc(Oc2ccccc2)cc1,4130 nM,
Cc1cc(OCCCn2ccc3ccc(C(=O)O)cc32)cc(C)c1Cl,3000 nM,
Cc1cc(OCCCn2ccc3cc(OCC(=O)O)ccc32)cc(C)c1Cl,1490 nM,
Cc1cc2c(C(C)C)c(O)c(O)c(C=O)c2c(O)c1-c1c(C)cc2c(C(C)C)c(O)c(O)c(C=O)c2c1O [GOSSYPOL],200 nM,
Cc1cc(OCCCn2ccc3c(OCC(=O)O)cccc32)cc(C)c1Cl,2000 nM,

Compound,Ki [1],Ki [2]
Cc1cc(OCCCn2ccc3c(OCc4ccccc4C(=O)O)cccc32)cc(C)c1Cl,140 nM,230 nM
Cc1cc(OCCCn2ccc3ccc(OCc4ccc(C(=O)O)cc4)cc32)cc(C)c1Cl,1190 nM,1240 nM
Cc1cc(OCCn2ccc3ccc(OCC(=O)O)cc32)cc(C)c1Cl,11600 nM,
Cc1cc(OCCCn2c(C(=O)N3CCCCC3)cc3ccc(OCc4ccccc4C(=O)O)cc32)cc(C)c1Cl,200 nM,270 nM
Cc1cc(OCCCn2ccc3ccc(OCc4ccccc4C(=O)O)cc32)cc(C)c1Cl,800 nM,1050 nM
O=C(O)COc1ccc2ccn(CCCOc3ccc(Cl)cc3)c2c1,12900 nM,
Cc1cc(OCCCn2ccc3ccc(OCC(=O)O)cc32)cc(C)c1Cl,1500 nM,
O=C(O)COc1ccc2ccn(CCCOc3cccc4ccccc34)c2c1,2570 nM,
CC(C)(C)c1ccc(SCCCn2ccc3ccc(OCC(=O)O)cc32)cc1,2380 nM,
Cc1cc(OCCCn2ccc3cc(OCc4ccccc4C(=O)O)ccc32)cc(C)c1Cl,110 nM,760 nM
Cc1ccc2ccn(CCCOc3cc(C)c(Cl)c(C)c3)c2c1,> 30000 nM,
Cc1cc(OCCCn2c(C(=O)N(C)C)cc3ccc(OCc4ccccc4C(=O)O)cc32)cc(C)c1Cl,570 nM,730 nM
CC(C)(C)c1ccc(OCCCn2ccc3cc(OCc4cccc(C(=O)O)c4)ccc32)cc1,250 nM,470 nM
CNC(=O)c1cc2ccc(OCc3ccccc3C(=O)O)cc2n1CCCOc1cc(C)c(Cl)c(C)c1,890 nM,810 nM
Cc1cc(OCCCn2ccc3cc(OCc4cccc(C(=O)O)c4)ccc32)cc(C)c1Cl,200 nM,410 nM
Cc1cc(OCCCn2c(C(N)=O)cc3ccc(OCc4ccccc4C(=O)O)cc32)cc(C)c1Cl,950 nM,850 nM
O=C(O)COc1ccc2ccn(CCCOc3ccccc3)c2c1,> 30000 nM,
CC(C)(C)c1ccc(OCCn2ccc3ccc(OCC(=O)O)cc32)cc1,8190 nM,
Cc1cc(OCCCn2ccc3cc(OCc4ccc(C(=O)O)cc4)ccc32)cc(C)c1Cl,1630 nM,1410 nM
Cc1cc(OCCCn2ccc3ccc(OCc4cccc(C(=O)O)c4)cc32)cc(C)c1Cl,740 nM,1190 nM
CCOC(=O)COc1ccc2ccn(CCCOc3cc(C)c(Cl)c(C)c3)c2c1,3370 nM,
